From ChEMBL document CHEMBL1126639, “Centrally acting serotonergic and dopaminergic agents. 2. Synthesis and structure-activity relationships of 2,3,3a,4,9,9a-hexahydro-1H-benz[f]indole derivatives” (J Med Chem, 1993)

Columns and labels:
D(2) dopamine receptor = D(2) dopamine receptor (Rattus norvegicus, UniProt P61169); assay: Binding affinity for [3H]raclopride-labeled dopamine receptor D2 in rat striatum; type: tissue-based
Mus musculus [1] = assay: Time of effect in the face-to-face behavioral assay in the mouse when a dose of 0.0 micro mol/kg is administered perorally; type: functional
Mus musculus [2] = assay: Time of effect in the face-to-face behavioral assay in the mouse when a dose of 11 micro mol/kg is administered perorally; type: functional
Mus musculus [3] = assay: Time of effect in the isolation-induced aggression behavioral assay in the mouse when a dose of 0.0 micro mol/kg is administered intraperitoneally; type: functional
Mus musculus [4] = assay: Time of effect in the isolation-induced aggression behavioral assay in the mouse when a dose of 11 micro mol/kg is administered intraperitoneally; type: functional
Mus musculus [5] = assay: Time of effect in the isolation-induced aggression behavioral assay in the mouse when a dose of 11 micro mol/kg is administered perorally; type: functional
Mus musculus [6] = assay: Time of effect in the isolation-induced aggression behavioral assay in the mouse when a dose of 3.6 micro mol/kg is administered perorally; type: functional
Mus musculus [7] = assay: Time of effect in the isolation-induced aggression behavioral assay in the mouse when a dose of 36 micro mol/kg is administered intraperitoneally; type: functional
Mus musculus [8] = assay: Time of effect in the isolation-induced aggression behavioral assay in the mouse when a dose of 36 micro mol/kg is administered perorally; type: functional
Mus musculus [9] = assay: Time of effect in the face-to-face behavioral assay in the mouse when a dose of 36 micro mol/kg is administered perorally; type: functional
Rattus norvegicus [10] = assay: Effect on the synthesis rates of dopamine (DOPA accumulation) in the rat ventral limbic brain region at 10.7 uM/kg.; type: functional, Limbic system
Rattus norvegicus [11] = assay: Effect on the synthesis rates of serotonin (5-HTP accumulation) in the rat ventral limbic brain region 10.7 umol/kg.; type: functional, Limbic system
Rattus norvegicus [12] = assay: Inhibition of firing rates of dopaminergic neurons in the substantia nigra pars compacta by intravenous injection in rats; type: functional
Rattus norvegicus [13] = assay: Inhibition of firing rates of serotonergic neurons in the dorsal raphe nucleus by intravenous injection in rats; type: functional; conditions: Rattus norvegicus, Dorsal raphe nucleus, iv; read-out: ED50
Mus musculus [14] = assay: Effective dose on hypothermia in mouse when administered subcutaneously; type: functional
Mus musculus [15] = assay: Effective dose on hypothermia in mouse when administered through peroral route; type: functional
Mus musculus [16] = species on record: Mus musculus; assay: Time of effect in the face-to-face behavioral assay in the mouse […]; type: functional
Mus musculus [17] = assay: Time of effect in the face-to-face behavioral assay in the mouse when a dose of 0.4 micro mol/kg is administered subcutaneously; type: functional
Mus musculus [18] = assay: Time of effect in the face-to-face behavioral assay in the mouse when a dose of 3.6 micro mol/kg is administered subcutaneously; type: functional
Mus musculus [19] = assay: Maximum decrease in temperature when compound is administered subcutaneously; type: functional
Mus musculus [20] = assay: Maximum decrease in temperature when compound is administered through peroral route; type: functional
Mus musculus [21] = assay: Time of effect in the isolation-induced aggression behavioral assay in the mouse when a dose of 3.6 micro mol/kg is administered intraperitoneally (*,p<0.05); type: functional
Mus musculus [22] = assay: Time of effect in the isolation-induced aggression behavioral assay in the mouse when a dose of 36 micro mol/kg is administered intraperitoneally (*,p<0.05); type: functional
Mus musculus [23] = assay: Time of effect in the isolation-induced aggression behavioral assay in the mouse when a dose of 0.0 micro mol/kg is administered perorally; type: functional
Mus musculus [24] = assay: Time of effect in the isolation-induced aggression behavioral assay in the mouse when a dose of 0.4 micro mol/kg is administered intraperitoneally; type: functional
Mus musculus [25] = assay: Time of effect in the face-to-face behavioral assay in the mouse when a dose of 36 micro mol/kg is administered subcutaneously; type: functional
Rattus norvegicus [26] = assay: Effect on the synthesis rates of dopamine (DOPA accumulation) in the rat ventral limbic brain region at 10.7 micro mol/kg.; type: functional, Limbic system
Rattus norvegicus [27] = assay: Effect on the synthesis rates of serotonin in the rat ventral limbic brain region 10.7 micro mol/kg.; type: functional, Limbic system
Felis catus [28] = assay: Maximum decrease of arterial blood pressure at sympathetic nerve activity (SND) in anesthetized cat has been observed following 1 mg/kg dose; type: functional; set-up: scale not given: the % may be the effect or the level left
Felis catus [29] = assay: Maximum decrease of sympathetic nerve activity (SND) in anesthetized cat; type: functional; set-up: scale not given: the % may be the effect or the level left
Mus musculus [30] = assay: Antagonism of apomorphine in reserpinized mice when a dose of 3.2 micro mol/kg is administered intraperitoneally; type: functional
Mus musculus [31] = assay: Antagonism of apomorphine in reserpinized mice when a dose of 32 micro mol/kg is administered intraperitoneally; type: functional
Mus musculus [32] = assay: Antagonism of apomorphine in reserpinized mice when a dose of 0.3 micro mol/kg is administered intraperitoneally; type: functional
Mus musculus [33] = assay: Antagonism of apomorphine for 10-20 minutes in reserpinized mice when a dose of 0.03 micro mol/kg is administered intraperitoneally; type: functional
Mus musculus [34] = assay: Antagonism of apomorphine for 10-20 minutes in reserpinized mice when a dose of 3.2 micro mol/kg is administered intraperitoneally; type: functional
Mus musculus [35] = assay: Antagonism of apomorphine for 10-20 minutes in reserpinized mice when a dose of 32 micro mol/kg is administered intraperitoneally; type: functional
Mus musculus [36] = assay: Antagonism of apomorphine for 0-10 minutes in reserpinized mice when a dose of 0.03 micro mol/kg is administered intraperitoneally; type: functional
Mus musculus [37] = assay: Antagonism of apomorphine for 0-10 minutes in reserpinized mice when a dose of 0.3 micro mol/kg is administered intraperitoneally; type: functional
Mus musculus [38] = assay: Antagonism of apomorphine for 0-10 minutes in reserpinized mice when a dose of 32 micro mol/kg is administered intraperitoneally; type: functional
Mus musculus [39] = assay: Ability to stimulate dopaminergic systems by effect on locomotor activity in reserpinized mice when a dose of 32 micro mol/kg is administered intraperitoneally; type: functional
Mus musculus [40] = assay: Antagonism of apomorphine for 0-10 minutes in reserpinized mice when a dose of 3.2 micro mol/kg is administered intraperitoneally; type: functional
Mus musculus [41] = assay: Ability to stimulate dopaminergic systems by effect on locomotor activity in reserpinized mice when a dose of 0.03 micro mol/kg is administered intraperitoneally; type: functional
Mus musculus [42] = assay: Ability to stimulate dopaminergic systems by effect on locomotor activity in reserpinized mice when a dose of 0.3 micro mol/kg is administered intraperitoneally; type: functional
Mus musculus [43] = assay: Ability to stimulate dopaminergic systems by effect on locomotor activity in reserpinized mice when a dose of 3.2 micro mol/kg is administered intraperitoneally; type: functional
Mus musculus [44] = assay: Antagonism of apomorphine in reserpinized mice when a dose of 0.03 micro mol/kg is administered intraperitoneally; type: functional
Rattus norvegicus [45] = assay: Effect on the synthesis rates of serotonin in the rat ventral limbic brain region 3.2 micro mol/kg. Values are given as percent change from the control; type: functional, Limbic system
Rattus norvegicus [46] = assay: Effect on the synthesis rates of dopamine in the rat ventral limbic brain region at 3.2 micro mol/kg; type: functional, Limbic system
Mus musculus [47] = assay: Antagonism of apomorphine for 10-20 minutes in reserpinized mice when a dose of 0.3 micro mol/kg is administered intraperitoneally; type: functional
Rattus norvegicus [48] = assay: Inhibition of firing rates of dopaminergic neurons in the substantia nigra pars compacta by intravenous injection in rats.; type: functional

D(2) dopamine receptor, sequence (P61169 whole entry): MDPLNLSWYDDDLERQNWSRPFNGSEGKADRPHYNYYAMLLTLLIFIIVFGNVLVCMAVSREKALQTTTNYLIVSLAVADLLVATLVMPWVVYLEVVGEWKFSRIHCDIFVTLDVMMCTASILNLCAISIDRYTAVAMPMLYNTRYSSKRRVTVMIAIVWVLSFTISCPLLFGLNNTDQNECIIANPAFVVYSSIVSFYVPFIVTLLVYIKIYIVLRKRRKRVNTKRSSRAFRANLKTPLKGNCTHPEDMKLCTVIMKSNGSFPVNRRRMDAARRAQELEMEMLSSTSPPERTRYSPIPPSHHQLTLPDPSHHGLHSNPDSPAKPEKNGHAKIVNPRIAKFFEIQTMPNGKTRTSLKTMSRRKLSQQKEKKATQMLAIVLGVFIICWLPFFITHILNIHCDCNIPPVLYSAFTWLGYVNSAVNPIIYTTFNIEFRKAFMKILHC

Q: What does the source list for `C=CCN1CC[C@H]2Cc3c(cccc3OC)C[C@@H]21`?
A: Ki (D(2) dopamine receptor): > 1000 nM; Time (Mus musculus [1]): 0.3 s; Time (Mus musculus [2]): 0.7 s; Time (Mus musculus [3]): 5 s; Time (Mus musculus [4]): 46 s; Time (Mus musculus [5]): 63 s; Time (Mus musculus [6]): 36 s; Time (Mus musculus [7]): 83 s; Time (Mus musculus [8]): 219 s; Time (Mus musculus [9]): 0.9 s; Control (Rattus norvegicus [10]): 29%; Control (Rattus norvegicus [11]): 4%; ED50 (Rattus norvegicus [12]): 4.75 µmol/kg; ED50 (Rattus norvegicus [13]): 3.97 µmol/kg

Q: What does the source list for `C=CCN1CC[C@@H]2Cc3c(cccc3OC)C[C@H]21` (racemic)?
A: Ki (D(2) dopamine receptor): > 1000 nM; ED50 (Mus musculus [14]): 2.6 µM/kg; ED50 (Mus musculus [15]): 4.6 µM/kg; Time (Mus musculus [16]): 0.9 s; Time (Mus musculus [17]): 1.5 s; Time (Mus musculus [18]): 3.6 s; Time (Mus musculus [3]): 3 s; Time (Mus musculus [5]): 218 s; Max temperature decrease (Mus musculus [19]): 7.8; Max temperature decrease (Mus musculus [20]): 9.9; Time (Mus musculus [21]): 147 s; Time (Mus musculus [6]): 88 s; Time (Mus musculus [22]): 522 s; Time (Mus musculus [8]): 393 s; Time (Mus musculus [23]): 73 s; Time (Mus musculus [24]): 3 s; Time (Mus musculus [25]): 6.9 s; Control (Rattus norvegicus [26]): -26; Control (Rattus norvegicus [27]): -39; ED50 (Rattus norvegicus [13]): 0.14 µmol/kg; Control (Felis catus [28]): 63%; Control (Felis catus [29]): 78%

Q: What does the source list for `CN1CCc2cccc3c2[C@H]1Cc1ccc(O)c(O)c1-3` [APOMORPHINE]?
A: Locomotor activity (Mus musculus [30]): 139; Locomotor activity (Mus musculus [31]): 113; Locomotor activity (Mus musculus [32]): 135; Locomotor activity (Mus musculus [33]): 86; Locomotor activity (Mus musculus [34]): 42; Locomotor activity (Mus musculus [35]): 66; Locomotor activity (Mus musculus [36]): 78; Locomotor activity (Mus musculus [37]): 73; Locomotor activity (Mus musculus [38]): 69; Locomotor activity (Mus musculus [39]): 1184; Locomotor activity (Mus musculus [40]): 52; Locomotor activity (Mus musculus [41]): 22; Locomotor activity (Mus musculus [42]): 150; Locomotor activity (Mus musculus [43]): 1777; Locomotor activity (Mus musculus [44]): 119; Control (Rattus norvegicus [45]): 17%; Control (Rattus norvegicus [46]): -55%; Locomotor activity (Mus musculus [47]): 96; ED50 (Rattus norvegicus [48]): 0.031 µmol/kg
